Test results published in paper PMC6121244, “Differences in Functional Expression of Connexin43 and NaV1.5 by Pan- and Class-Selective Histone Deacetylase Inhibition in Heart” (International Journal of Molecular Sciences, 2018).
Read-outs that look alike come from different tables or passages of the source.

How the values were obtained:
[1] = test system: total HDAC activity in cultured neonatal mouse ventricular cardiomyocytes; experiment: Fluor de Lys total HDAC activity assay in cultured ventricular cardiomyocytes; type: cell-based; conditions: NMVMs, 18–24 h treatment
Description: Neonatal mice born from an inbred C57BL/6 mouse colony were anesthetized using isoflurane and the hearts were excised in accordance with procedures approved by the SUNY Upstate Medical University Institutional Animal Care and Use Committee (IACUC) # 263 on 15 March 2017. The excised hearts were separated into atria and ventricles and exposed to collagenase solution for digestion. The dissociated cells were pre-plated for 30 min to reduce fibroblast content by differential adhesion and the supernatant was collected, centrifuged and re-suspended in 1 mL/heart of M199/10% FBS culture media. The primary cells were plated into 96-well plates for HDAC activity assays, 35 mm culture dishes for patch clamp electrophysiology, or 60 mm culture dishes and homogenized after 3 days for Western blots.
Aliquots of 2 × 10^5 ventricular myocytes per well (96-well plate) were grown in 200 μL of 200 μM bromodeoxyuridine (BrDU)/M199, exchanged daily. Cell densities were counted with a hemocytometer and seeded into the wells. Wells were incubated with 2000 pmoles of the acetylated Fluor-de-Lys® substrate for 8 h during HDAC inhibition. […]

[2] = test system: ventricular gap junction conductance (gj), Cx43-mediated; experiment: Gap junction conductance (gj), dual whole cell patch clamp on NMVM cell pairs; type: cell-based, mouse; conditions: 10 or 25 nM ricolinostat, 18–24 h
Description: Final DMSO levels were <0.005% (vol/vol).
Gap junction currents (Ij) were recorded in the dual whole cell configuration according to previously published methods. Upon establishing a dual whole cell patch, Ij was recorded using a 30 s, 20 mV trans-junctional voltage protocol. All dual whole cell current recordings were low-pass filtered at 500 Hz and digitized at 2 KHz using pClamp 8.2 and graphical analysis performed using Origin 7.5 or 8.6 software as previously described.

[3] = test system: cardiac sodium current (INa) in NMVMs, primarily NaV1.5; experiment: Cardiac sodium current (INa) density and Vm-dependent gNa activation/inactivation, whole cell patch clamp; type: cell-based, mouse
Source text: Since both the activation and inactivation of INa are dependent on the membrane potential (Vm), we calculated the normalized Na^+ conductance (gNa) by dividing the average peak INa by the difference between Vm and the reversal potential (Erev) for INa, and then divided the gNa value for each Vm by the maximum gNa value for each experiment. The gNa–Vm curves were fit with a Boltzmann function gNa= gNamax+ (gNa− gNamax)/[1+exp((Vm− V1/2)/dVm)] using Origin 8.6. […] Final DMSO levels were <0.005% (vol/vol).

[4] = test system: late INa in NMVMs; experiment: Late INa, whole cell patch clamp; type: cell-based, mouse; conditions: 25 nM ricolinostat 18–24 h, Vm ramp
Source text: Increases in late or persistent INa have been linked to cardiac arrhythmias and heart failure. […] . Subsequently, we modified a voltage clamp ramp protocol designed to generate late INa I–V relationships. […] .

[5] = test system: Cx43 protein expression in NMVMs; experiment: Western blot of Cx43 protein level; type: cell-based, mouse; conditions: 25 nM ricolinostat, 24 h
[6] = test system: NaV1.5 protein expression in NMVMs; experiment: Western blot of NaV1.5 protein level; type: cell-based, mouse; conditions: 25 nM ricolinostat, 24 h
[7] = test system: HDAC1; set-up: method as in PMID 22262760; conditions: cited from earlier work
[8] = test system: HDAC2; set-up: method as in PMID 22262760; conditions: cited from earlier work
[9] = test system: HDAC3; set-up: method as in PMID 22262760; conditions: cited from earlier work
[10] = test system: HDAC8; set-up: method as in PMID 22262760; conditions: cited from earlier work
[11] = test system: HDAC4; set-up: method as in PMID 22262760; conditions: cited from earlier work
[12] = test system: HDAC5; set-up: method as in PMID 22262760; conditions: cited from earlier work
[13] = test system: HDAC7; set-up: method as in PMID 22262760; conditions: cited from earlier work
[14] = test system: HDAC9; set-up: method as in PMID 22262760; conditions: cited from earlier work
[15] = test system: acetyl-α-tubulin and acetyl-histone 3; experiment: Western blot of acetylation markers; conditions: 25 nM ACY-1215, 24 h
[16] = test system: IK,to and IK,ss in NMVMs; experiment: Transient and steady state outward K+ currents, whole cell patch clamp; conditions: 25 nM ACY-1215, 24 h
[17] = 25 nM ricolinostat, listed as ricolinostat

## O=C(CCCCCCNC(=O)c1cnc(N(c2ccccc2)c2ccccc2)nc1)NO [Ricolinostat, ricolinostat]
[1]; double exponential fit
  C1, decay constant of first exponential component of HDAC inhibition curve: 16.9 ± 15.1 nM
  C2, decay constant of second exponential component of HDAC inhibition curve: 204 ± 52 nM
[1]; read-out: IC50(1), high affinity site, total HDAC activity, IC50 = 0.693·C1
  IC50: 0.012 µM
[1]; read-out: IC50(1), high affinity site, total HDAC activity, IC50 = 0.693·C1, listed as ACY-1215
  IC50: 0.0117 ± 0.0105 µM
[1]; read-out: IC50(2), low affinity site, total HDAC activity, IC50 = 0.693·C2
  IC50: 0.14 µM
[1]; read-out: IC50(2), low affinity site, total HDAC activity, IC50 = 0.693·C2, listed as ACY-1215
  IC50: 0.141 ± 0.036 µM
[2]
  effect on ventricular gj: modest but non-significant increases and decreases in gj, respectively
[3]; 25 nM ricolinostat
  shift in gNa activation V½: […]
  shift in gNa inactivation curve (V½): […]
[3]; [17]
  shift in gNa activation V½: […]
  shift in gNa inactivation curve (V½): […]
[3]; 25 nM ricolinostat, not statistically significant (p = 0.054, one-way ANOVA)
  increase in peak INa: 93%
[3]; 10 and 25 nM ricolinostat
  effect on peak INa density: concentration-dependent, but non-significant, increase
[4]
  effect on late INa current density: no increase in late INa
[5]
  Cx43 protein level: no significant changes
[6]
  NaV1.5 protein level: no significant changes
[7]
  IC50: […]
[7]; listed as ACY-1215
  IC50: […]
[8]
  IC50: […]
[8]; listed as ACY-1215
  IC50: […]
[9]
  IC50: […]
[9]; listed as ACY-1215
  IC50: […]
[10]
  IC50: […]
[11]
  IC50: […]
[12]
  IC50: […]
[13]
  IC50: 1.4 µM
[14]
  IC50: […]
[15]
  Ac-H3 and Ac-α-tubulin signals: only increased the Ac-α-tubulin signal
[16]
  transient outward and steady state K+ currents: no si gni ficant chang es
